The target of data set [1] is T1, Rev-Erb alpha (Homo sapiens, UniProt P20393).
T1 sequence (P20393 284-614 limits assumed): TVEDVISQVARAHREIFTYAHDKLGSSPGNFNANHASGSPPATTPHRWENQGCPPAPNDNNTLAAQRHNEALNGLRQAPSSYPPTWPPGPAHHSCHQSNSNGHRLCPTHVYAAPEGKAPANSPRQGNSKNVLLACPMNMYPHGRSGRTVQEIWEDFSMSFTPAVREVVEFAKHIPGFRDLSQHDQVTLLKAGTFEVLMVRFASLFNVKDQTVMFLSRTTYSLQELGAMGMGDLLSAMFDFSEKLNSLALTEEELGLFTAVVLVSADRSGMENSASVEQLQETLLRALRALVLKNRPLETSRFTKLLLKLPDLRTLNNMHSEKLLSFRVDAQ
Briefly: TR-FRET (HTRF) assay of Rev-Erb alpha LBD with NCoR peptide ID1. The class given is biochemical. Particulars: cell-free, Rev-Erb alpha LBD His 20 nM, NCoR ID1 30 nM. As to the method:
Recombinant histidine-tagged Rev-Erb alpha ligand binding domain (LBD; SEQ ID NO: 1) and NCoR peptide ID1 (SEQ ID NO: 2) were tagged with fluorophores. Histidine-tagged Rev-Erb alpha LBD protein was set up in a one to one ratio of 20 nM of His D2 (Cis Bio International 61HSDLB). The NCoR peptide (ID1) was prepared in-house. We used a concentration of 30 nM NCoR and 10 nM Terbium-labeled streptavidin (Cis Bio International 610SATLB).
The buffer for this assay comprised PBS pH 7.2, NaH2P04 at 4 g/L, Na2HP04 at 27 g/L and NaCl at 9 g/l in deionized water. Before using the buffer in the assay, a mixture comprising 1 mM of DTT, 2 mM of CHAPS, 1 mM of EDTA and 0.1% BSA fatty acid free was added to the appropriate amount of buffer. The protein mixture comprising recombinant Rev-Erb alpha LBD His (20 nM), the NCoR ID1 (30 nM) and their respective fluorophores were added to each well of a 384-well plate in a volume 18 μl. The compounds to analyze were diluted in PBS 10% DMSO and was added in a volume of 2 μL in a well. The final mixture volume was 20 μL and the mixture was allowed equilibrate for 2 hours at room temperature. Fluorescence intensity was then counted on the TECAN Genios Pro as a ratio of the fluorescence measured at 665 nm and that measured at 620 nm obtained in the absence of the compound (buffer only) or with the compound. Four experiments were carried out for each compound.
Each compound has been tested at 6 different concentrations to depict a dose-effect enabling the measure of biochemical parameters such as EC50 and TOP activation (%).
The Homogenous Time Resolved Fluorescence (HTRF) assay allows studying the ability of compounds according to the invention to activate Rev-Erb alpha and thus modulate the interaction with its corepressor. The molecular interactions between these bio-molecules are assessed in a cell-free assay by coupling each partner with a fluorescent label and detecting the level of energy transfer. This energy transfer occurs when the distance between the donor (SA Terbium complex) and the acceptor (D2) is small enough.
The ability of compounds according to the invention of activating Rev-Erb alpha was assessed in the described acellular assay. EC50 and TOP activation were measured.
(In general: In TR-FRET formats the signal depends on donor and acceptor labels being close together.)

Data set [2] addresses T1, Rev-Erb alpha. The data set is described as follows: M2H (mammalian two-hybrid) cellular activation assay of Rev-Erb alpha. Particulars: M2H assay, HEK293 cells; for EC50: Gal4-Rev-Erb alpha / VP16-NCoR, luciferase reporter; for Emax: relative to DMSO, at the tested dose, read-out: TOP activation. The class given is cell-based. Summed up:
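Six-point dose-response, 18 h, 37 °C, serum-free, in HEK293 cells carrying a Gal4-RE luciferase reporter with Gal4-Rev-Erb alpha or beta plus VP16-NCoR (corepressor interaction readout). EC50 and TOP activation (%) derived from luminescence across four experiments.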
(Reporter assays use an easily measured gene product as a stand-in for the process of interest.)

As for `Clc1nnc2ccc(Oc3cccc(-c4ccccc4)c3)nn12` [Cpd.3-1, 6-(biphenyl-3-yloxy)-3-chloro-[1,2,4]triazolo[4,3-b]pyridazine], the EC50 on Rev-Erb alpha [1] and on Rev-Erb alpha [2] was 100 to 1000 nM each time.

Compound `O=C(c1ccccc1)c1cccc(Oc2ccc3nnc(Cl)n3n2)c1` [Cpd.3-2, (3-(3-chloro-[1,2,4]triazolo[4,3-b]pyridazin-6-yloxy)phenyl)(phenyl)methanone] registered a melting point of 148 °C. The same compound yielded an EC50 at Rev-Erb alpha [1] of less than 100 nM. Further, the EC50 at Rev-Erb alpha [2] was 100 to 1000 nM.

The compound `FC(F)(F)c1nnc2ccc(Oc3cccc(-c4ccccc4)c3)nn12` [Cpd.3-3, 6-(biphenyl-3-yloxy)-3-(trifluoromethyl)-[1,2,4]triazolo[4,3-b]pyridazine] showed a melting point of 140.2 °C. The EC50 at Rev-Erb alpha [1] is 1100 to 6000 nM. The EC50 at Rev-Erb alpha [2] was in the range of 100 to 1000 nM.

On to `O=C(c1ccccc1)c1cccc(Oc2ccc3nnc(C(F)(F)F)n3n2)c1` [Cpd.3-4, (3-(3-(trifluoromethyl)-[1,2,4]triazolo[4,3-b]pyridazin-6-yloxy)phenyl)(phenyl)methanone], for which the melting point was 94.4 °C. Further, on Rev-Erb alpha [1], the EC50 is 100 to 1000 nM. Also, the EC50 on Rev-Erb alpha [2] was 100 to 1000 nM.

`FC(F)(F)c1nnc2ccc(Oc3cccc(Cc4ccccc4)c3)nn12` [Cpd.3-5, 6-(3-benzylphenoxy)-3-(trifluoromethyl)-[1,2,4]triazolo[4,3-b]pyridazine] registered a melting point of 115 °C. For the same compound, on Rev-Erb alpha [1], the EC50 was in the range of 100 to 1000 nM. In addition, the EC50 on Rev-Erb alpha [2] fell in the range of 100 to 1000 nM.

On to `Clc1nnc2ccc(Oc3ccccc3-c3ccccc3)nn12` [Cpd.4-1, 6-(biphenyl-2-yloxy)-3-chloro-[1,2,4]triazolo[4,3-b]pyridazine], for which the melting point turned out to be 163 °C. Also, on Rev-Erb alpha [1], the EC50 fell in the range of 1100 to 6000 nM. The compound also registered an EC50 on Rev-Erb alpha [2] of less than 100 nM.

In turn, `Fc1cccc(-c2ccccc2Oc2ccc3nnc(Cl)n3n2)c1` [Cpd.4-3, 6-(3′-fluoro-biphenyl-2-yloxy)-3-chloro-[1,2,4]triazolo[4,3-b]pyridazine] showed a melting point of 97.3 °C. The EC50 at Rev-Erb alpha [1] was less than 100 nM. This compound also gave an EC50 at Rev-Erb alpha [2] of 100 to 1000 nM.

As to `Clc1nnc2ccc(Oc3ccccc3Cc3ccccc3)nn12` [Cpd.4-4, 6-(2-benzylphenoxy)-3-chloro-[1,2,4]triazolo[4,3-b]pyridazine], the melting point worked out at 113.7 °C. Also, the EC50 on Rev-Erb alpha [1] lay in the range of 100 to 1000 nM. The compound also yielded an EC50 on Rev-Erb alpha [2] of 100 to 1000 nM.

As for `Clc1nnc2ccc(Cc3ccccc3-c3ccccc3)nn12` [Cpd.4-9, 6-(biphenyl-2-ylmethyl)-3-chloro-[1,2,4]triazolo[4,3-b]pyridazine], the EC50 at Rev-Erb alpha [1] fell in the range of 100 to 1000 nM; at Rev-Erb alpha [2], 1000 to 6000 nM.

As for `Cc1cc(Oc2cc(C(F)(F)F)ccc2-c2cncnc2)nn2cnnc12` [Cpd.5-46, 8-methyl-6-(2-(pyrimidin-5-yl)-5-(trifluoromethyl)phenoxy)-[1,2,4]triazolo[4,3-b]pyridazine], the melting point fell in the range of 230 to 234 °C. Moreover, at Rev-Erb alpha [2], the EC50 is more than 6000 nM and the Emax is more than 130%.

For the compound `CCc1nnc2c(C)cc(Oc3cc(C(F)(F)F)ccc3-c3cncnc3)nn12` [Cpd.5-48, 3-ethyl-8-methyl-6-(2-(pyrimidin-5-yl)-5-(trifluoromethyl)phenoxy)-[1,2,4]triazolo[4,3-b]pyridazine], the melting point was in the range of 182 to 184 °C. The same compound displayed an EC50 at Rev-Erb alpha [2] of 1000 to 6000 nM.

For the compound `CCc1nnc2cc(C)c(Oc3cc(C(F)(F)F)ccc3-c3cccnc3)nn12` [Cpd.5-49, 3-ethyl-7-methyl-6-(2-(pyridin-3-yl)-5-(trifluoromethyl)phenoxy)-[1,2,4]triazolo[4,3-b]pyridazine], the melting point was 174 to 176 °C. The compound also registered an EC50 on Rev-Erb alpha [2] of 1000 to 6000 nM.

In turn, `COc1ncc(-c2ccc(C(F)(F)F)cc2Oc2nn3c(Cl)nnc3c3ccccc23)c(OC)n1` [Cpd.5-54, 3-chloro-6-(2-(2,4-dimethoxypyrimidin-5-yl)-5-(trifluoromethyl)phenoxy)-[1,2,4]triazolo[3,4-a]phthalazine] gave a melting point of 240 °C. For the same compound, on Rev-Erb alpha [2], the EC50 was more than 6000 nM and the Emax is more than 130%.

The compound `COc1ncc(-c2cc(Cl)ccc2Oc2cc(C)c3nnc(Cl)n3n2)cn1` [Cpd.5-55, 3-chloro-6-(4-chloro-2-(2-methoxypyrimidin-5-yl)phenoxy)-8-methyl-[1,2,4]triazolo[4,3-b]pyridazine] returned a melting point of 170 to 172 °C. At Rev-Erb alpha [2], the EC50 fell in the range of 1000 to 6000 nM.

Consider `COc1ncc(-c2cc(Cl)ccc2Oc2nn3c(Cl)nnc3cc2C)cn1` [Cpd.5-56, 3-chloro-6-(4-chloro-2-(2-methoxypyrimidin-5-yl)phenoxy)-7-methyl-[1,2,4]triazolo[4,3-b]pyridazine], for which the melting point was in the range of 189 to 192 °C. On Rev-Erb alpha [2], this compound registered an EC50 of 1000 to 6000 nM.

Compound `COc1ncc(-c2cc(Cl)ccc2Oc2nn3c(Cl)nnc3c3ccccc23)cn1` [Cpd.5-57, 3-chloro-6-(4-chloro-2-(2-methoxypyrimidin-5-yl)phenoxy)-[1,2,4]triazolo[3,4-a]phthalazine] gave a melting point of 213 to 215 °C. The compound also registered an EC50 at Rev-Erb alpha [2] of 100 to 1000 nM.

With `Cc1cc(Oc2ccc(Cl)cc2-c2cncnc2)nn2c(Cl)nnc12` [Cpd.5-58, 3-chloro-6-(4-chloro-2-(pyrimidin-5-yl)phenoxy)-8-methyl-[1,2,4]triazolo[4,3-b]pyridazine], the melting point was in the range of 208 to 210 °C. This compound also returned an EC50 on Rev-Erb alpha [2] of 1000 to 6000 nM.

The compound `Cc1cc2nnc(Cl)n2nc1Oc1ccc(Cl)cc1-c1cncnc1` [Cpd.5-59, 3-chloro-6-(4-chloro-2-(pyrimidin-5-yl)phenoxy)-7-methyl-[1,2,4]triazolo[4,3-b]pyridazine] returned a melting point of 224 to 226 °C. For the same compound, on Rev-Erb alpha [2], the EC50 was more than 6000 nM and the Emax is more than 130%.

With `Clc1ccc(Oc2nn3c(Cl)nnc3c3ccccc23)c(-c2cncnc2)c1` [Cpd.5-60, 3-chloro-6-(4-chloro-2-(pyrimidin-5-yl)phenoxy)-[1,2,4]triazolo[3,4-a]phthalazine], the melting point fell in the range of 252 to 253 °C. For the same compound, at Rev-Erb alpha [2], the EC50 is 100 to 1000 nM.

As to `Cc1cc2nnc(C(F)(F)F)n2nc1Oc1cc(C(F)(F)F)ccc1-c1cncnc1` [Cpd.5-61, 7-methyl-6-(2-(pyrimidin-5-yl)-5-(trifluoromethyl)phenoxy)-3-(trifluoromethyl)-[1,2,4]triazolo[4,3-b]pyridazine], the melting point is 174 to 179 °C. In addition, on Rev-Erb alpha [2], the EC50 lay in the range of 1000 to 6000 nM.

For the compound `FC(F)(F)c1ccc(-c2cncnc2)c(Oc2nn3c(C(F)(F)F)nnc3c3ccccc23)c1` [Cpd.5-62, 6-(2-(pyrimidin-5-yl)-5-(trifluoromethyl)phenoxy)-3-(trifluoromethyl)-[1,2,4]triazolo[3,4-a]phthalazine], the melting point was in the range of 197 to 200 °C. In addition, the 50% effective concentration (EC50) at Rev-Erb alpha [2] was in the range of 1000 to 6000 nM.

With `Cc1cc(Oc2cc(C(F)(F)F)ccc2-c2cncnc2)nn2c(C(F)(F)F)nnc12` [Cpd.5-63, 8-methyl-6-(2-(pyrimidin-5-yl)-5-(trifluoromethyl)phenoxy)-3-(trifluoromethyl)-[1,2,4]triazolo[4,3-b]pyridazine], the melting point was in the range of 167 to 172 °C. Also, the EC50 at Rev-Erb alpha [2] lay in the range of 1000 to 6000 nM.

Compound `FC(F)(F)c1ccc(-c2cncnc2)c(Oc2nn3cnnc3c3ccccc23)c1` [Cpd.5-64, 6-(2-(pyrimidin-5-yl)-5-(trifluoromethyl)phenoxy)-[1,2,4]triazolo[3,4-a]phthalazine] showed a melting point of 220 to 230 °C. For the same compound, the EC50 on Rev-Erb alpha [2] lay within 1000 to 6000 nM.

As usually defined, the EC50 is the concentration giving half of the maximal effect. Read a low EC50 as an effect from little substance. By melting point is commonly meant the temperature, or range, at which the solid turns liquid.

The values above are taken from patent publication US9586963B2 (GENFIT, priority 2011, dated 2017).
